Values joined by “and” are separate entries in the source; they are usually repeats but may differ in a detail not shown here. Equal entries are not always repeated.
Assays:
S. pyogenes D471 = assay: MIC, modified broth microdilution, MHB; format: cell-based
Protocol: (§1) The MIC and MBC values were calculated using a modified version of the broth microdilution assay as previously described by the Clinical and Laboratory Standards Institute (CLSI) (45). The specific modifications were to the bacterial concentration and growth medium used. […] CAA medium was used for Gram-negative bacteria to simulate low iron conditions. Alternatively, MHB was used for Gram-positive bacteria due to their inability to grow in CAA medium. Bacterial growth was assessed by measuring the OD600 nm using a SpectraMax M5 microplate reader (Molecular Devices). The MIC was defined as the lowest antimicrobial concentration that inhibits bacterial growth. To determine the MBC, the contents from each well originating from the MIC microtiter plate was plated on CAA agar to quantitate bacterial viability. The MBC was defined as the lowest antimicrobial concentration required to kill ≥99.9% of the initial bacterial inoculum. Growth and sterility controls were included.

B. cereus RSVF1 = assay: MIC, modified broth microdilution, MHB; format: cell-based
Protocol: as §1

S. aureus NR-45946 = assay: MIC, modified broth microdilution, MHB; format: cell-based
Protocol: as §1

E. faecium EFSK-2 = assay: MIC, modified broth microdilution, MHB; format: cell-based
Protocol: as §1

[1] = tested on: pseudomonal PG (autoclaved P. aeruginosa); assay: Muralytic plate lysis assay on autoclaved Pseudomonas; format: biochemical; conditions: 25 pmol spotted
P. aeruginosa strain 453 [2] = assay: Plate lysis assay using viable Pseudomonas; format: cell-based
Protocol: For determining muralytic activity, 25 pmol of each purified protein sample was spotted on 0.75% (wt/vol) agarose embedded with autoclaved P. aeruginosa in 50 mM Tris-HCl, pH 7.5. […] For elucidating antipseudomonal activity towards viable bacteria, 0.01-400 pmol of each purified protein sample was spotted on 0.75% (wt/vol) agarose comprising P. aeruginonsa strain 453 at an initial concentration of 5×10^6 CFU/ml in either CAA medium or CAA:HuS (1:1; HuS from pooled human male AB plasma, Sigma-Aldrich). Growth inhibition zones observed after 24 h incubation at 37° C. correspond to antipseudomonal activity. Buffer was spotted as a negative control.

P. aeruginosa strain 453 [3] = assay: Lysocin thermal stability (residual antipseudomonal activity after heating); format: physicochemical; conditions: 30 min incubation in PBS, then 50 μg/ml for 4 h at 37° C.
Protocol: FIG. 7. Lysocin thermal stability. PyS2-GN4 was incubated in phosphate buffered saline (PBS) for 30 min at temperatures ranging from 4° C. to 80° C. After cooling on ice, each sample at 50 μg/ml was incubated statically with P. aeruginosa strain 453 for a total of 4 h at 37° C. The average residual antipseudomonal activity of each sample was equated to the log10 decrease in viable bacterial cells when compared to the untreated control. All error bars correspond to ±SEM of triplicate experiments.

P. aeruginosa strain 453 [4] = assay: Murine model of bacteremia; format: in vivo, mice; conditions: for protected from death (survival over 10 days): 3 h post-infection
Protocol: A murine model of bacteremia using P. aeruginosa was adapted from previous studies (46-50). Briefly, male 6-week-old C57BL/6 mice (Charles River Laboratories) were IP infected with 10^8 P. aeruginosa strain 453 and then IP treated 3 h post-infection with a single dosage of either PBS or PyS2-GN4 at 2.5-25 mg/kg. Survival was monitored for 10 days. The collective results were obtained from four independent experiments and analyzed by Kaplan-Meier survival curves using GraphPad Prism. The Rockefeller University Institutional Animal Care and Use Committee approved all mouse experiments (protocol 17025).

P. aeruginosa strain 453 [5] = assay: Transmission electron microscopy of lysocin-treated bacteria; format: cell-based; conditions: 50 μg/ml
Protocol: At 0, 30 and 60 min, an aliquot was removed and fixed with 100 mM sodium cacodylate, pH 7.4, containing 4% (vol/vol) paraformaldehyde and 2% (vol/vol) glutaraldehyde. TEM images were obtained by The Rockefeller University Electron Microscopy Resource Center.

A. baumaneii ATCC 17978 = assay: MIC, modified broth microdilution, CAA medium; format: cell-based
Protocol: as §1

E. coli ATCC 25922 = assay: MIC, modified broth microdilution, CAA medium; format: cell-based
Protocol: as §1

K. pneumoniae NR-41916 = assay: MIC, modified broth microdilution, CAA medium; format: cell-based
Protocol: as §1

E. cloacae NR-50391 = assay: MIC, modified broth microdilution, CAA medium; format: cell-based
Protocol: as §1

P. aeruginosa strain 453 [6] = assay: Cell viability assays with 0.5 μM antimicrobial; conditions: iron-chelated CAA medium
Protocol: P. aeruginosa strain 453 were grown under iron-depleted conditions (see Bacterial Strains and Growth Conditions). The bacteria were harvested, washed and resuspended in fresh CAA medium with 0.5 mg/ml EDDHA. Using a 96-well flat-bottomed microtiter plate, the bacteria at ˜10^6 CFU/ml were incubated statically at 37° C. with either growth medium only (untreated control) or 0.5 μM purified antimicrobial. A 2 h incubation was used for the single time point experiments, whereas a 4 or 6 h incubation was used for the multiple time point assays. At various time points, an aliquot was removed from each sample, serially diluted and plated on CAA agar. After incubating the agar plates for up to 48 h at 37° C., colonies were counted in order to quantitate the CFU/ml concentration of surviving bacterial cells. Modifications were introduced to the aforementioned cell viability assay protocol for the experiment using P. aeruginosa grown in the presence of varying free iron concentrations. First, P. aeruginosa strain 453 were grown using iron-depleted or iron-rich conditions (CAA medium supplemented with 100 μM FeSO4) at 37° C. with aeration for a total of 16-18 h and subsequently assayed for lysocin sensitivity in PBS, pH 7.4. For the experiment analyzing lysocin activity in the presence of lung surfactant or serum, P. aeruginosa were incubated with or without lysocin in beractant ([sequence]; Abbvie) or HuS diluted 1:1 with 20 mM sodium phosphate, pH 7.0.

P. aeruginosa strains = assay: MIC and MBC, modified CLSI broth microdilution, CAA medium; format: cell-based
Protocol: as §1

P. aeruginosa strain 453 [7] = assay: Endotoxin release (chromogenic LAL assay); format: cell-based; conditions: after 4 h treatment, 0.2× and 5×MIC
Protocol: Endotoxin Release P. aeruginosa strain 453 at 10^6 CFU/ml was treated with 0.2× and 5×MIC PyS2-GN4, colistin, meropenem or tobramycin in CAA medium for either 1 or 4 h at 37° C. The samples were subsequently centrifuged at 2,000×g for 10 min. The supernatant was collected and passed through a 0.2 μm syringe filter. Endotoxin concentration in the filtered supernatant was quantitated using the ToxinSensor Chromogenic LAL Endotoxin Assay Kit (GenScript). All data was depicted as the mean±SEM of duplicate experiments.

P. aeruginosa strain 453 [8] = assay: Dose-response cell viability assay (killing kinetics); format: cell-based; conditions: for reduction in bacterial viability: 0.1-100 μg/ml, CAA medium with EDDHA
Protocol: For the 12 h experiments, 0.01-100 μg/ml of PyS2-GN4 was incubated statically at 37° C. with P. aeruginosa strain 453 at 10^6 CFU/ml in CAA medium with 0.5 mg/ml EDDHA (Complete Green Company). At 2 h increments, an aliquot was removed from each sample, serial diluted and plated on CAA agar to determine viable bacterial counts. For the 24 h experiments, lysocin at 0.1-100 μg/ml was incubated statically at 37° C. with P. aeruginosa strain 453 at 10^6 CFU/ml in either CAA medium or CAA:HuS (1:1) with EDDHA. After 24 h, the samples were serial diluted and plated on CAA agar to assess bacterial viability. An untreated control was used for each data set. All samples were investigated in duplicate.

## PyS2-GN4: lysocin: PyS2 domains I-III, with domain IV (aa 559-689) deleted and replaced by the GN4 lysin (aa 1-144); 76 kDa
S. pyogenes D471
  MIC: >256 µg/mL
B. cereus RSVF1
  MIC: >256 µg/mL
S. aureus NR-45946
  MIC: >256 µg/mL
E. faecium EFSK-2
  MIC: >256 µg/mL
[1]
  muralytic activity (clearing zones) on autoclaved P. aeruginosa: degraded Pseudomonas PG
P. aeruginosa strain 453 [2]; 50% HuS
  amount spotted at which activity could be observed: 0.13 pmol
P. aeruginosa strain 453 [2]; growth medium (CAA)
  amount spotted at which antipseudomonal activity was displayed: 0.64 pmol
P. aeruginosa strain 453 [3]
  temperature at which bactericidal activity was fully retained: 45 °C
P. aeruginosa strain 453 [4]; 2.5 mg/kg IP
  protected from death (survival over 10 days): 73%
P. aeruginosa strain 453 [4]; 5 mg/kg IP
  protected from death (survival over 10 days): 80%
P. aeruginosa strain 453 [4]; 12.5 mg/kg IP
  protected from death (survival over 10 days): 93%
P. aeruginosa strain 453 [4]; 25 mg/kg IP
  protected from death (survival over 10 days): 100%
P. aeruginosa strain 453 [4]; day 10
  Pseudomonas in organs of surviving mice: did not contain detectable Pseudomonas
P. aeruginosa strain 453 [5]; 30 min post-treatment
  bacterial morphology by TEM: transitioned from rod-shaped to a more spherical morphology
P. aeruginosa strain 453 [5]; 60 min post-treatment
  bacterial morphology by TEM: intact, nonviable cells either lacking or with noticeably reduced cytoplasmic content
A. baumaneii ATCC 17978
  MIC: >256 µg/mL
E. coli ATCC 25922
  MIC: >256 µg/mL
K. pneumoniae NR-41916
  MIC: >256 µg/mL
E. cloacae NR-50391
  MIC: >256 µg/mL
P. aeruginosa strain 453 [6]; 3 h
  decrease in pseudomonal viability: 3.1 log10
P. aeruginosa strain 453 [6]; duration of the experiment (6 h)
  viable bacterial cells relative to limit of detection (10 CFU/ml): incapable of lowering the number of viable bacterial cells to the limit of detection
P. aeruginosa strains; strain 452, FpvA type I
  MIC: 4 µg/mL
P. aeruginosa strains; strain 453, FpvA type I
  MBC: 0.25 µg/mL
  MIC: 0.25 µg/mL
P. aeruginosa strains; strain MDR-M-3, FpvA type I
  MIC: 2 µg/mL
P. aeruginosa strains; strain PAO1, FpvA type I
  MIC: 2 µg/mL
P. aeruginosa strains; towards strain PAO1 and the 452, 453 and MDR-M-3 clinical isolates
  MIC values: ≤ 4 µg/mL
P. aeruginosa strain 453 [7]
  endotoxin release, fold less than meropenem and tobramycin: ~100 fold
P. aeruginosa strain 453 [8]; 2 h
  reduction in bacterial viability: ~2 log10
P. aeruginosa strain 453 [8]; 4 h
  reduction in bacterial viability: ~3 log10
P. aeruginosa strain 453 [8]; 12 h
  reduction in bacterial viability: ~4 log10
P. aeruginosa strain 453 [8]; 24 h, CAA medium and 50% HuS
  lysocin concentration that sterilized the bacterial culture: 10 μg/ml and 132 nM
P. aeruginosa strain 453 [8]; after 4 h
  concentration at which bactericidal: 0.1 µg/mL

From patent US20220024992A1, “COMPOSITIONS AND METHODS COMPRISING LYSOCINS AS BIOENGINEERED ANTIMICROBIALS FOR USE IN TARGETING GRAM-NEGATIVE BACTERIA” (The Rockefeller University, priority 2018, published 2022)
